The values below come from patent US20190106460A1, “BINDING INHIBITORS OF THE BETA. TRANSDUCIN REPEAT-CONTAINING PROTEIN” (priority 2011, published 2019).

Experiment [1] has as its target βTrCP (Homo sapiens, UniProt Q9Y297). Briefly: Fluorescence polarisation (FP) binding assay with fluorescein-tagged IκB peptide. For orientation: Fluorescence polarisation rises when a labelled molecule tumbles more slowly, as on binding a larger partner.
Target sequence in this assay (P63208 whole entry partner, one chain of several): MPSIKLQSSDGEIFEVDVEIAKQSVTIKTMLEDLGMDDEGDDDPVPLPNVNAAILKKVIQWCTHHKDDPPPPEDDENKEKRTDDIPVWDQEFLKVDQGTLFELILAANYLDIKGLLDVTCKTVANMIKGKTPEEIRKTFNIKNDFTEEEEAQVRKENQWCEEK
The next experiment addresses βTrCP/Skp1 (Homo sapiens, UniProt Q9Y297). Briefly: Surface plasmon resonance (SPR), Biacore T200. Format: binding. The following applies: apparent KD averaged over both surfaces. How it is done: Surface Plasmon Resonance (SPR)
Experiments were carried out using the Biacore T200 SPR detection system. This system exploits the phenomenon of surface plasmon resonance (SPR) to monitor interactions between molecules. The system involves the attachment of one interacting partner to a surface (an appropriate sensor chip) while the other interacting partner is passed over it in solution. The binding of molecules to the surface generates an SPR response (measured in response units (RU)) that is proportional to the mass and amount of the biomolecule (in this case βTrCP/Skp1) bound to the chip. The relative responses obtained are dependent on the concentration of the molecule binding. At RUmaximum, the attached protein's binding sites are saturated. Binding events can be followed in real time and a range of interaction characteristics can be determined including kinetics, specificity of interactions and the concentration of specific molecules in a sample.
As βTrCP was His tagged, an NTA sensor chip was used. This sensor chip has a dextran surface matrix with immobilized nitrilotriacetic acid (NTA) which provides a means of capturing polyHis-tagged proteins through Nickel chelation. It was hoped that addition of Ni^+ would orient the protein in a specific (and hopefully active) manner as it is covalently immobilised via amine coupling. Addition of EDC:NHS (N-ethyl-N′-(3-[…])-carbodiimide:N-hydroxysuccinimide) converts carboxyl groups on the dextran sensor chip surface to succinamide esters which readily form covalent bonds with primary amines. Each chip contains four flow cells (each a separate surface) which means that compounds/peptides can be passed over different forms of βTrCP and a reference surface simultaneously. If binding to βTrCP is occurring, responses should be the same (accounting for differences in density of surface etc) on each surface.
Two different βTrCP protein complexes were immobilised on to an NTA biacore sensor chip. One included the GSTSkp1 fusion (HisβTrCP/GSTSkp1) while the other was immobilised after GST Removal by Thrombin (HisβTrCP/Skp1). To ensure that the GST moiety is completely removed from Skp1, βTrCP/GSTSkp1 was incubated with thrombin ((10units/mg protein) for at least 16 hours at room temperature in 10mMHEPES 150mMNaCl pH7.4+2 mM CaCl2. Thrombin and GST were removed from βTrCP/Skp1 by buffer exchange through a 50 KDa MWCO vivaspin concentrator.
Protein Immobilisation Procedure for NTA Chip
Ni+ (500 μM NiCl) loaded on to surface at a flow rate of 5 μl/min for 60s. EDC/NHS (activates dextran carboxylates) loaded at a flow rate of 5 μl/min for 240s. Protein ([protein]=100 nM to 1 μM) loaded at a flow rate of 10 μl/min for 180s. Strip solution (350 μM EDTA/1M NaCl) added at flow rate of 10 μl/min for 30s (to chelate excess Ni+ and remove non-covalently bound protein e.g. protein oligomers). Quench solution (ethanolamine) at flow rate of 5 μl/min for 240s (to deactivate surface molecules on the chip that have not crosslinked protein). The immobilisation buffer used was 10 mM HEPES pH 7.4, 150 mM NaCl,
GST Capture Procedure (for Immobilisation Via GSTSkp1)
EDC:NHS was injected at 5 μl/min for 4 min to activate surface for amine coupling (this converts carboxyl groups on the surface of the chip to succinamide esters that react with primary amines)
Anti-GST (60 μg/ml). was loaded at 10 μl/min for 4 min resulting in an increase in response units of 6730 (Biacore manual states it should result in ˜7000)
Ethanolamine was injected at 5 μl/min for 5 min to deactivate remaining unreacted esters at surface (quenching).
Injection of a low concentration of purified GST (from kit) was injected for 3 mins at 5 μl/min before running a regeneration cycle with glycine pH2.0 that disrupts the antibody-GST interaction. […]

The target in experiment [2] is T1, βTrCP (Homo sapiens, UniProt Q9Y297).
T1 sequence (Q9Y297 1-605): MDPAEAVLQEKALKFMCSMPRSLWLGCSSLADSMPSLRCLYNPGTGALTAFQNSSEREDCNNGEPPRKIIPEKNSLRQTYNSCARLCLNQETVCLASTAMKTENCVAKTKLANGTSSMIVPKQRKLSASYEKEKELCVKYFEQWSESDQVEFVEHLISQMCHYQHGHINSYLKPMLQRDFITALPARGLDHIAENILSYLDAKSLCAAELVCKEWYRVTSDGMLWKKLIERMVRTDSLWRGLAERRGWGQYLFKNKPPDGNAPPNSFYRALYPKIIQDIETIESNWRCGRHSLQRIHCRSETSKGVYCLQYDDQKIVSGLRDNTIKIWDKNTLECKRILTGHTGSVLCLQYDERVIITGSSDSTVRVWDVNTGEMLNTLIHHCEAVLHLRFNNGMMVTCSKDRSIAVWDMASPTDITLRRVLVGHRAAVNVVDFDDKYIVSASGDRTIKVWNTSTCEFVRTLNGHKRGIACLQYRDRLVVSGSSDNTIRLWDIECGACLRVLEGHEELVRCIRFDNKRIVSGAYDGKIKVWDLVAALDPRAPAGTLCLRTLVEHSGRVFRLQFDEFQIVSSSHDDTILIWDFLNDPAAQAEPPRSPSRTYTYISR
Briefly: Biotin pull down assay with biotinylated IκB peptide. Format: binding. The following applies: for Biotin Pulldown Assay 10 μM: 10 μM compound; for Biotin Pulldown Assay 100 μM: 100 μM compound.

In another experiment the target is β-TrCP1/Skp1 (Homo sapiens, UniProt Q9Y297). Briefly: βTrCP ubiquitination assay (Ub assay). The experiment is classed as biochemical. The following applies: for Ub Assay 10 μM: 10 μM compound; for Ub Assay 100 μM: 100 μM compound. In short, it runs like this: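 Compounds tested in duplicate at 10 and 100 μM in βTrCP(IκBα) and βTrCP(β-catenin) cascades with UBE1 E1, UbcH3 E2 and biotinylated ubiquitin; substrate phosphorylation done without compound, ubiquitination steps with compound. Product captured on anti-c-Myc plates and detected with SA-Ru TAG by MSD electrochemiluminescence.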
β-TrCP1/Skp1, sequence (P63208 2-163 partner limits assumed, one chain of several): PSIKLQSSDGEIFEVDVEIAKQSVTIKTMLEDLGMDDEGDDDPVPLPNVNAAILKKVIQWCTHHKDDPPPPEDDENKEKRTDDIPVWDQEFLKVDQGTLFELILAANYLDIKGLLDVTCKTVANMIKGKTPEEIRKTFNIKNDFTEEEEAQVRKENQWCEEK

The target in another experiment is Skp2 (Homo sapiens, UniProt Q13309). Briefly: Selectivity assay vs other E3s: Skp2. Format: biochemical. The note with it: for inhibition at 100 µM: value in brackets, read-out: % Inhibition Skp2 @ (100 μM); for inhibition at 10 µM: read-out: % Inhibition Skp2 @ 10 μM. Put shortly: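 Skp2 ubiquitination was measured in master mixes of 50 mM Herpes buffer, pH 7.5, with 75 mM NaCl and 1 mM DTT, lacking Mg or ATP. Test compounds were preincubated for 30 minutes at room temperature, Mg/ATP was added for a further 60 minutes, and reactions were boiled in SDS loading buffer, resolved on 10% SDS-PAGE, blotted to nitrocellulose and probed with HRP-Streptavidin.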
Skp2, sequence (Q13309 whole entry, species assumed): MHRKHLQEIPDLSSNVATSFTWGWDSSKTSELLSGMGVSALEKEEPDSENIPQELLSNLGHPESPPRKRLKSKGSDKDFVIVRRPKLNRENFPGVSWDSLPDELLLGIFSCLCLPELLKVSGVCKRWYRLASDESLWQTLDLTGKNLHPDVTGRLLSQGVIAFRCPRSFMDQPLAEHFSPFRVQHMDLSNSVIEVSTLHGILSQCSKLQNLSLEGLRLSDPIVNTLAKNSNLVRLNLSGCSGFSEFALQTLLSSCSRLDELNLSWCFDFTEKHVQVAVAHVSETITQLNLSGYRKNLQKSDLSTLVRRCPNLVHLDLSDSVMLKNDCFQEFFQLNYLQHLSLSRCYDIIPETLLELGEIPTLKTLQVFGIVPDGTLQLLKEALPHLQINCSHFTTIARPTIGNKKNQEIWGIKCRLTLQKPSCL
Skp2, sequence (P63208 whole entry partner, species assumed): as the sequence (P63208 whole entry partner, one chain of several) above
Skp2, sequence (Q13616 whole entry partner, species assumed): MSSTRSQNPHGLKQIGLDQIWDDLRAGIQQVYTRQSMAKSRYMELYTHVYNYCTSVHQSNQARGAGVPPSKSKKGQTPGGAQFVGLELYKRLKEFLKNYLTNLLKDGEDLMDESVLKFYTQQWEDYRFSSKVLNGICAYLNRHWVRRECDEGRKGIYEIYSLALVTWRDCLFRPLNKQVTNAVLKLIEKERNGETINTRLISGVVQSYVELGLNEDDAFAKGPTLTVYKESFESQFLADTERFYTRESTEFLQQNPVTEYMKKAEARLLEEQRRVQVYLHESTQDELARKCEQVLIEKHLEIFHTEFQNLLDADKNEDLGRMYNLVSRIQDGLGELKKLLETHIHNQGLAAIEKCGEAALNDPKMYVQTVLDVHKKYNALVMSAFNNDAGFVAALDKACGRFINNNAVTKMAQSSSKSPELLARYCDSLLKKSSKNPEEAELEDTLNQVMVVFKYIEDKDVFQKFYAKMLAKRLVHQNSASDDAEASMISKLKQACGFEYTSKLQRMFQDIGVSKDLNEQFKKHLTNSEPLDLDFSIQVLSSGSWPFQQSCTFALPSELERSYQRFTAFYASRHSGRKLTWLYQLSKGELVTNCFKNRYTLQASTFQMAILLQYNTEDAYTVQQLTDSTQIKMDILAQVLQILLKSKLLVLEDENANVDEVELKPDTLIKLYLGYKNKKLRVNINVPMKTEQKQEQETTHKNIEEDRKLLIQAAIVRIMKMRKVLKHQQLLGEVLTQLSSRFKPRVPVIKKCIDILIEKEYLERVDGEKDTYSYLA
Skp2, sequence (P62877 whole entry partner, species assumed): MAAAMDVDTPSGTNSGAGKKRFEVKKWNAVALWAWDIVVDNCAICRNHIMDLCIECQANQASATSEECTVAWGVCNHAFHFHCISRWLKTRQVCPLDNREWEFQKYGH

The target of another experiment is FBW7/Skp1 (Homo sapiens, UniProt Q969H0). Briefly: Selectivity assay vs other E3s: Fbw7. Format: biochemical. The note with it: for inhibition at 100 µM: value in brackets, read-out: % Inhibition Fbw7 @ (100 μM); for inhibition at 10 µM: read-out: % Inhibition Fbw7 @ 10 μM. In short, it runs like this: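 FBW7/Skp1 E3 ubiquitination of cyclin E substrate in 50 mM HEPES pH 7.5, 75 mM NaCl, 1 mM DTT; preincubated 30 min at room temperature before Mg/ATP, then 60 min more. Products resolved by 10% SDS-PAGE and immunoblotted with anti-cyclin E.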
FBW7/Skp1, sequence (Q969H0 whole entry, species assumed): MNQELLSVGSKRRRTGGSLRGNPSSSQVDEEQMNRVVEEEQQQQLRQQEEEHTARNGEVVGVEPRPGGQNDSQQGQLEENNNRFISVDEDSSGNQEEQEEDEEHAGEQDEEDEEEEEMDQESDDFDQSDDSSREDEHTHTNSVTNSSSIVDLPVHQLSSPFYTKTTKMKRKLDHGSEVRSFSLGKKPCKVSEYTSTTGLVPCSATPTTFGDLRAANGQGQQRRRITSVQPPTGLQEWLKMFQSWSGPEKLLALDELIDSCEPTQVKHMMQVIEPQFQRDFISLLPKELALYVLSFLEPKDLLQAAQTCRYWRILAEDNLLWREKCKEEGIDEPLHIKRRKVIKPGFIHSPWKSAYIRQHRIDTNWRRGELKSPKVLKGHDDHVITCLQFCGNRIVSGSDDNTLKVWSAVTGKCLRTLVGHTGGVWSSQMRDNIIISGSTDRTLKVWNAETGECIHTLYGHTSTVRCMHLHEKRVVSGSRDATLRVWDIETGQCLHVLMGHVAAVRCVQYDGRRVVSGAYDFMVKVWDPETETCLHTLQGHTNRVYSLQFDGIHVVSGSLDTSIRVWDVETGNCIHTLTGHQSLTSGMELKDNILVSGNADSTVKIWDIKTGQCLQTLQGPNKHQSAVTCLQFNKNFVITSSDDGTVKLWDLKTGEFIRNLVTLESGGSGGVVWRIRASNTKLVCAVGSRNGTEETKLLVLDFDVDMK
FBW7/Skp1, sequence (P63208 whole entry partner, species assumed): as the sequence (P63208 whole entry partner, one chain of several) above
FBW7/Skp1, sequence (Q13616 whole entry partner, species assumed): as the sequence (Q13616 whole entry partner, species assumed) above
FBW7/Skp1, sequence (P62877 whole entry partner, species assumed): as the sequence (P62877 whole entry partner, species assumed) above

Setting [3] is: Table 11, with spread, read-out: FP IC50/μM.
Setting [4] is: Tables 1, 3, 7, 8, 10 nM fluorescein-tagged IκB peptide, read-out: FP Assay IC50/μM.

SMILES strings stand for the structures. Read-outs that look alike come from different tables or passages of the source. Starred links: 1 amine or outer side, 2 acyl side, 3 side chain; linkers in the order of their positions; H or OH if unused. Non-standard residues stand in square brackets, D forms with d. Residues, ends and D or L forms follow the SMILES beside them. *: point of attachment. Phe(4-NO2) = N[C@@H](Cc1ccc([N+](=O)[O-])cc1)C(=O)O; Phe(3-F) = N[C@@H](Cc1cccc(F)c1)C(=O)O; Suc = O=C(CCC(=O)[*:2])[*:1]; Ethoxycarbonyl = CCOC(=O)*

βTrCP/Skp1, sequence (P63208 whole entry partner, one chain of several): as the sequence (P63208 whole entry partner, one chain of several) above

As for `NC(=O)CC[C@H](NC(=O)CCC(=O)O)C(=O)NCC(=O)N[C@@H](Cc1cccc(F)c1)C(=O)N[C@@H](Cc1ccc([N+](=O)[O-])cc1)C(=O)N[C@@H](CCC(=O)O)C(N)=O` [UBP012, Suc-QGF(3F)F(4NO2)E-NH2], on βTrCP [1] (setting [3]), the IC50 was determined as 2.56 ± 0.374 µM. For the same molecule, the Kd at βTrCP/Skp1 was found to be 5.49 ± 2.27 µM. Besides, on βTrCP [2], the “Biotin Pulldown Assay 10 μM” value is given as “no effect/” and the “Biotin Pulldown Assay 100 μM” value is reported as “reduces”. At β-TrCP1/Skp1, the “Ub Assay 10 μM” value is listed as “no effect/” and the “Ub Assay 100 μM” value is recorded as “inhibits”. Besides, on Skp2, the inhibition at 100 µM is 0% and the inhibition at 10 µM stood at 0%. Besides, at FBW7/Skp1, the inhibition at 100 µM stood at 0% and the inhibition at 10 µM came to 0%.

Consider `NC(=O)[C@H](CCC(=O)O)NC(=O)[C@H](Cc1ccc([N+](=O)[O-])cc1)NC(=O)[C@H](Cc1ccc(O)cc1)NC(=O)CNC(=O)[C@H](CCC(=O)O)NC(=O)CCC(=O)O` [UBP013, Suc-EGYF(4NO2)E-NH2] (Suc-EGY[Phe(4-NO2)]E-NH2), for which, at βTrCP [1] (setting [3]), the IC50 was found to be 2.07 ± 0.346 µM. Moreover, the Kd at βTrCP/Skp1 stood at 17.7 ± 5.2 µM. At βTrCP [2], the “Biotin Pulldown Assay 10 μM” value is “no effect/” and the “Biotin Pulldown Assay 100 μM” value is on record as “inhibits”. On β-TrCP1/Skp1, the “Ub Assay 10 μM” value is recorded as “no effect/” and the “Ub Assay 100 μM” value is recorded as “inhibits”. Moreover, on Skp2, the inhibition at 100 µM was 31% and the inhibition at 10 µM stood at 11%. In addition, at FBW7/Skp1, the inhibition at 100 µM turned out to be 0% and the inhibition at 10 µM is 0%.

As for `NC(=O)[C@H](CCC(=O)O)NC(=O)[C@H](Cc1c[nH]c2ccccc12)NC(=O)[C@H](Cc1cccc(F)c1)NC(=O)CNC(=O)[C@H](CCC(=O)O)NC(=O)CCC(=O)O` [UBP014, Suc-EGF(3F)WE-NH2] (Suc-EG[Phe(3-F)]WE-NH2), the IC50 at βTrCP [1] (setting [3]) was found to be 0.095 ± 0.009 µM. Also, the IC50 at βTrCP [1] (setting [4]) was 0.095 µM. The Kd at βTrCP/Skp1 stood at 0.455 ± 0.03 µM. For the same molecule, on βTrCP [2], the “Biotin Pulldown Assay 10 μM” value is listed as “reduces/” and the “Biotin Pulldown Assay 100 μM” value was “inhibits”. In addition, on β-TrCP1/Skp1, the “Ub Assay 10 μM” value is reported as “reduces/” and the “Ub Assay 100 μM” value is on record as “inhibits”. On Skp2, the inhibition at 100 µM was 6% and the inhibition at 10 µM is 5%. For the same molecule, on FBW7/Skp1, the inhibition at 100 µM turned out to be 0% and the inhibition at 10 µM was 0%.

Turning to `NC(=O)[C@H](CCC(=O)O)NC(=O)[C@H](Cc1c[nH]cn1)NC(=O)[C@H](Cc1cccc(F)c1)NC(=O)CNC(=O)[C@H](CCC(=O)O)NC(=O)CCC(=O)O` [UBP015, Suc-EGF(3F)HE-NH2] (Suc-EG[Phe(3-F)]HE-NH2), on βTrCP [1] (setting [3]), the IC50 amounted to 0.521 ± 0.059 µM. Also, on βTrCP [1] (setting [4]), the IC50 is 0.521 µM. In addition, the Kd at βTrCP/Skp1 was 0.4 ± 0.021 µM. Also, on βTrCP [2], the “Biotin Pulldown Assay 10 μM” value is recorded as “reduces/” and the “Biotin Pulldown Assay 100 μM” value is “inhibits”. Further, on β-TrCP1/Skp1, the “Ub Assay 10 μM” value is reported as “reduces/” and the “Ub Assay 100 μM” value is reported as “inhibits”. Further, at Skp2, the inhibition at 100 µM was found to be 18% and the inhibition at 10 µM was 3%. Moreover, on FBW7/Skp1, the inhibition at 100 µM stood at 83% and the inhibition at 10 µM came to 12%.

With `CCOC(=O)N[C@H](CC(=O)O)C(=O)N[C@@H](CCC(=O)O)C(=O)NCC(=O)N[C@@H](Cc1cccc(F)c1)C(=O)N[C@@H](Cc1c[nH]c2ccccc12)C(=O)N[C@@H](CCC(=O)O)C(N)=O` [UBP023, EtO(CO)-dEGF(3F)WE-NH2] (Ethoxycarbonyl-[dD]EG[Phe(3-F)]WE-NH2), at βTrCP [1] (setting [3]), the IC50 came out at 0.045 ± 0.005 µM. The Kd at βTrCP/Skp1 was 0.034 ± 0.017 µM. Also, on βTrCP [2], the “Biotin Pulldown Assay 10 μM” value is recorded as “reduces/” and the “Biotin Pulldown Assay 100 μM” value is given as “inhibits”. On β-TrCP1/Skp1, the “Ub Assay 10 μM” value is given as “inhibits/” and the “Ub Assay 100 μM” value is reported as “inhibits”. Moreover, on Skp2, the inhibition at 100 µM came to 4% and the inhibition at 10 µM was 4%. Moreover, at FBW7/Skp1, the inhibition at 100 µM turned out to be 12% and the inhibition at 10 µM amounted to 0%.

As a reminder, the inhibition is the drop in the measured response relative to a control, in per cent.
